Reference: patent US6835726B2, “Pyrimidine derivatives” (priority 1998, dated 2004)

System: recombinant human cytomegalovirus (HCMV)
Experiment: microbe, parasite or virus in culture
Format: cell-based
Conditions: CMV assay, Table 2; read-out: Antiviral Activity
From the text: Certain preferred compounds and compositions are capable of specifically inhibiting or suppressing cytomegalovirus infection. For the assessment of activity against human CMV, a method was used which is similar to that described in Kohler, et al., J. Virol. 68:6589-6597 (1994). Briefly, a recombinant human cytomegalovirus (HCMV) was made containing a marker gene (luciferase) under the control of the promoter for the late 28 kDa viral structural phosphoprotein pp28. Human foreskin fibroblast (HFF) cells were infected with the recombinant HCMV virus (MOI 5), placed into 96-well plates, and cultured under standard cell-culture conditions. Compounds that were evaluated for anti-HCMV activity were added to the infected cells 1 hour later. The level of luciferase expression was measured 24 hours after treatment with the test compounds. […] As an additional control, the cytotoxicity of test compounds on untreated HFF cells was also evaluated in cultured cell growth experiments.

`Cc1nc(NCc2ccc(F)cc2)nc(-n2ccnc2C)c1[N+](=O)[O-]` and `Cc1nc(NCc2ccc(Cl)cc2)nc(-n2ccnc2C)c1[N+](=O)[O-]` fall in the same range of IC50: 100 to 500 nM for the first, 100 to 500 nM for the second.

Compared with `Cc1nc(NCc2ccccc2Cl)nc(-n2ccnc2C)c1[N+](=O)[O-]`, `Cc1ccccc1CNc1nc(C)c([N+](=O)[O-])c(-n2ccnc2C)n1` is higher in IC50: under 100 nM for the first, 100 to 500 nM for the second.

First: Cc1nc(NCc2ccc(F)c(C(F)(F)F)c2)nc(-n2ccnc2C)c1[N+](=O)[O-]
Second: Cc1nc(NCc2ccc(F)c(F)c2)nc(-n2ccnc2C)c1[N+](=O)[O-]
The IC50 of the first is lower: under 100 nM for the first, 100 to 500 nM for the second. The first is the more potent here.

`CCC(Nc1nc(C)c([N+](=O)[O-])c(-n2ccnc2C)n1)c1ccccc1` (centres unmarked) and `Cc1nc(NCc2ccccn2)nc(-n2ccnc2C)c1[N+](=O)[O-]` fall in the same range of IC50: 100 to 500 nM for the first, 100 to 500 nM for the second.

`COc1ccc(CNc2nc(C)c([N+](=O)[O-])c(-n3ccnc3C)n2)cc1OC` and `COc1cccc(CNc2nc(C)c([N+](=O)[O-])c(-n3ccnc3C)n2)c1` fall in the same range of IC50: 100 to 500 nM for the first, 100 to 500 nM for the second.

First: Cc1nc(NCc2cccc(C(F)(F)F)c2)nc(-n2ccnc2C)c1[N+](=O)[O-]
Second: Cc1nc(NCc2cccc(F)c2)nc(-n2ccnc2C)c1[N+](=O)[O-]
The IC50 of the first is lower: under 100 nM for the first, 100 to 500 nM for the second.

First: Cc1nc(NCc2ccc(Cl)c(Cl)c2)nc(-n2ccnc2C)c1[N+](=O)[O-]
Second: Cc1nc(NCc2cc(Cl)ccc2Cl)nc(-n2ccnc2C)c1[N+](=O)[O-]
The IC50 of the first is higher: 100 to 500 nM for the first, under 100 nM for the second. The second is the more potent here.

`Cc1nc(NCc2ccc(F)cc2C(F)(F)F)nc(-n2ccnc2C)c1[N+](=O)[O-]` and `CCc1nccn1-c1nc(NCc2ccc(F)cc2C(F)(F)F)nc(C)c1[N+](=O)[O-]` fall in the same range of IC50: 100 to 500 nM for the first, 100 to 500 nM for the second.

Going from `Cc1nc(NCc2cccnc2)nc(-n2ccnc2C)c1[N+](=O)[O-]` to `Cc1nc(NCc2cccc(Cl)c2)nc(-n2ccnc2C)c1[N+](=O)[O-]`, the IC50 falls from over 500 nM to under 100 nM.

First: Cc1ccc(CNc2nc(C)c([N+](=O)[O-])c(-n3ccnc3C)n2)cc1
Second: Cc1cccc(CNc2nc(C)c([N+](=O)[O-])c(-n3ccnc3C)n2)c1
The IC50 of the first is higher: over 500 nM for the first, 100 to 500 nM for the second.

First: Cc1nc(NCc2cc(F)cc(F)c2)nc(-n2ccnc2C)c1[N+](=O)[O-]
Second: Cc1nc(NCc2cc(F)c(F)c(F)c2)nc(-n2ccnc2C)c1[N+](=O)[O-]
The IC50 of the first is lower: under 100 nM for the first, 100 to 500 nM for the second.

`Cc1nc(NCc2cc(F)ccc2F)nc(-n2ccnc2C)c1[N+](=O)[O-]` and `Cc1nc(NCc2ccc(F)cc2Cl)nc(-n2ccnc2C)c1[N+](=O)[O-]` fall in the same range of IC50: 100 to 500 nM for the first, 100 to 500 nM for the second.

`Cc1nc(NCc2c(F)cccc2Cl)nc(-n2ccnc2C)c1[N+](=O)[O-]` and `Cc1cccc(Cl)c1CNc1nc(C)c([N+](=O)[O-])c(-n2ccnc2C)n1` fall in the same range of IC50: 100 to 500 nM for the first, 100 to 500 nM for the second.

`Cc1nc(NCc2cc(F)cc(F)c2)nc(-n2ccnc2)c1[N+](=O)[O-]` and `Cc1ccccc1CNc1nc(C)c([N+](=O)[O-])c(-n2ccnc2)n1` cannot be ordered by IC50: over 500 nM for the first, over 500 nM for the second.

First: Cc1nc(NCc2cc(C(F)(F)F)ccc2F)nc(-n2ccnc2C)c1[N+](=O)[O-]
Second: Cc1nc(NCc2ccc(F)c(F)c2F)nc(-n2ccnc2C)c1[N+](=O)[O-]
The IC50 of the first is lower: under 100 nM for the first, 100 to 500 nM for the second.

Compared with `Cc1nc(NCc2cc(C(F)(F)F)cc(C(F)(F)F)c2)nc(-n2ccnc2C)c1[N+](=O)[O-]`, `Cc1nc(NCc2cc(Cl)cc(Cl)c2)nc(-n2ccnc2C)c1[N+](=O)[O-]` is lower in IC50: over 500 nM for the first, 100 to 500 nM for the second.

`Cc1nc(NCc2c(F)ccc(F)c2F)nc(-n2ccnc2C)c1[N+](=O)[O-]` and `Cc1nc(NCc2cc(F)cc(F)c2F)nc(-n2ccnc2C)c1[N+](=O)[O-]` fall in the same range of IC50: 100 to 500 nM for the first, 100 to 500 nM for the second.

`CCc1nccn1-c1nc(NCc2c(F)cccc2Cl)nc(C)c1[N+](=O)[O-]` and `CCc1nccn1-c1nc(NCc2ccc(F)cc2Cl)nc(C)c1[N+](=O)[O-]` fall in the same range of IC50: 100 to 500 nM for the first, 100 to 500 nM for the second.

First: Cc1nc(NCc2cccc(Cl)c2Cl)nc(-n2ccnc2C)c1[N+](=O)[O-]
Second: Cc1nc(NCc2cccc(Br)c2)nc(-n2ccnc2C)c1[N+](=O)[O-]
The IC50 of the first is higher: 100 to 500 nM for the first, under 100 nM for the second.

In the case of `Cc1nc(NCc2ccccc2OC(F)(F)F)nc(-n2ccnc2C)c1[N+](=O)[O-]`, the IC50 is reported as 100 to 500 nM.

Same assay, conditions: CMV assay, Table 3; read-out: Antiviral Activity

`Cc1nc(OCc2ccccc2)nc(-n2ccnc2)c1[N+](=O)[O-]` [benzyl/H/Me] and `Cc1nc(OCCc2ccccc2)nc(-n2ccnc2)c1[N+](=O)[O-]` [phenethyl/H/Me] cannot be ordered by IC50: over 500 nM for the first, over 500 nM for the second.

`CCCCOc1nc(C)c([N+](=O)[O-])c(-n2ccnc2)n1` [n-butyl/H/Me] and `CCCOc1nc(C)c([N+](=O)[O-])c(-n2ccnc2)n1` [n-propyl/H/Me] cannot be ordered by IC50: over 500 nM for the first, over 500 nM for the second.

`COC(C)CCOc1nc(C)c([N+](=O)[O-])c(-n2ccnc2)n1` (centres unmarked) [3-methoxy-1-butyl/H/Me] and `Cc1nc(OCCC(C)(C)C)nc(-n2ccnc2)c1[N+](=O)[O-]` [3,3-dimethyl-1-butyl/H/Me] cannot be ordered by IC50: over 500 nM for the first, over 500 nM for the second.

`COC(C)CCOc1nc(C)c([N+](=O)[O-])c(-n2ccnc2C)n1` (centres unmarked) [3-methoxy-1-butyl/Me/Me] and `CCCCOc1nc(C)c([N+](=O)[O-])c(-n2ccnc2C)n1` [n-butyl/Me/Me] cannot be ordered by IC50: over 500 nM for the first, over 500 nM for the second.

`CCOc1nc(C)c([N+](=O)[O-])c(-n2ccnc2C)n1` [ethyl/Me/Me] and `COc1nc(C)c([N+](=O)[O-])c(-n2ccnc2C)n1` [methyl/Me/Me] cannot be ordered by IC50: over 500 nM for the first, over 500 nM for the second.

With `Cc1nc(OCCC(C)(C)C)nc(-n2ccnc2C)c1[N+](=O)[O-]` [3,3-dimethyl-1-butyl/Me/Me] the IC50 was over 500 nM.

Same assay, conditions: CMV assay, Table 4; read-out: Antiviral Activity

First: Cc1nc(NC2CCc3c(F)cccc32)nc(-n2ccnc2C)c1[N+](=O)[O-] (centres unmarked)
Second: Cc1nc(NC2CCc3c(Cl)cccc32)nc(-n2ccnc2C)c1[N+](=O)[O-] (centres unmarked)
The IC50 of the first is lower: 100 to 500 nM for the first, over 500 nM for the second.

`Cc1nc(NC2CCc3cc(F)c(F)cc32)nc(-n2ccnc2C)c1[N+](=O)[O-]` (centres unmarked) and `CCc1nccn1-c1nc(NC2CCc3cc(F)c(F)cc32)nc(C)c1[N+](=O)[O-]` (centres unmarked) fall in the same range of IC50: 100 to 500 nM for the first, 100 to 500 nM for the second.

First: Cc1nc(NC2CCc3cc(F)c(F)cc32)nc(-n2ccnc2)c1[N+](=O)[O-] (centres unmarked)
Second: Cc1nc(NC2CCc3cc(F)ccc32)nc(-n2ccnc2)c1[N+](=O)[O-] (centres unmarked)
The IC50 of the first is higher: 100 to 500 nM for the first, under 100 nM for the second.

`COC1c2ccccc2CC1Nc1nc(C)c([N+](=O)[O-])c(-n2ccnc2C)n1` (centres unmarked) and `COC1c2ccccc2CC1Nc1nc(C)c([N+](=O)[O-])c(-n2ccnc2)n1` (centres unmarked) cannot be ordered by IC50: over 500 nM for the first, over 500 nM for the second.

First: Cc1nc(NC2Cc3ccccc3C2(C)C)nc(-n2ccnc2C)c1[N+](=O)[O-] (centres unmarked)
Second: Cc1nc(NC2Cc3ccccc3C2(C)C)nc(-n2ccnc2)c1[N+](=O)[O-] (centres unmarked)
The IC50 of the first is lower: 100 to 500 nM for the first, over 500 nM for the second. The first is the more potent here.

`Cc1nc(NC2CCc3cc(F)ccc32)nc(-n2ccnc2C)c1[N+](=O)[O-]` (centres unmarked) and `Cc1nc(NC2CCc3cc(Br)ccc32)nc(-n2ccnc2C)c1[N+](=O)[O-]` (centres unmarked) fall in the same range of IC50: 100 to 500 nM for the first, 100 to 500 nM for the second.

`Cc1nc(NC2CCc3c(F)cccc32)nc(-n2ccnc2)c1[N+](=O)[O-]` (centres unmarked) and `Cc1nc(NC2CCc3c(F)ccc(F)c32)nc(-n2ccnc2)c1[N+](=O)[O-]` (centres unmarked) fall in the same range of IC50: 100 to 500 nM for the first, 100 to 500 nM for the second.

`Cc1nc(NC2CCc3c(F)ccc(F)c32)nc(-n2ccnc2C)c1[N+](=O)[O-]` (centres unmarked) and `CCc1nccn1-c1nc(NC2CCc3c(F)ccc(F)c32)nc(C)c1[N+](=O)[O-]` (centres unmarked) cannot be ordered by IC50: under 100 nM for the first, under 100 nM for the second.

First: Cc1nc(NC2CCc3ccccc32)nc(-n2ccnc2C)c1[N+](=O)[O-] (centres unmarked)
Second: Cc1nc(NC2CCCc3ccccc32)nc(-n2ccnc2C)c1[N+](=O)[O-] (centres unmarked)
The IC50 of the first is lower: under 100 nM for the first, 100 to 500 nM for the second.

`Cc1nc(NC2CCc3ccc(Cl)cc32)nc(-n2ccnc2C)c1[N+](=O)[O-]` (centres unmarked) and `CCc1nccn1-c1nc(NC2CCc3ccccc32)nc(C)c1[N+](=O)[O-]` (centres unmarked) fall in the same range of IC50: 100 to 500 nM for the first, 100 to 500 nM for the second.

First: Cc1nc(NC2CCc3ccccc32)nc(-n2ccnc2)c1[N+](=O)[O-] (centres unmarked)
Second: Cc1nc(NC2COc3ccccc32)nc(-n2ccnc2C)c1[N+](=O)[O-] (centres unmarked)
The IC50 of the first is lower: under 100 nM for the first, 100 to 500 nM for the second.

First: CCc1nccn1-c1nc(NC2Cc3ccccc3C2)nc(C)c1[N+](=O)[O-]
Second: CCc1nccn1-c1nc(NC2CCc3c(F)cccc32)nc(C)c1[N+](=O)[O-] (centres unmarked)
The IC50 of the first is higher: over 500 nM for the first, 100 to 500 nM for the second. The second is the more potent here.

`Cc1nc(N(C)C2CCc3ccccc32)nc(-n2ccnc2C)c1[N+](=O)[O-]` (centres unmarked) gave an IC50 of 100 to 500 nM.

Same assay, conditions: Human betaherpesvirus 5, HFF, 24 h

For `Cc1nc(N2CCN(Cc3ccccc3)CC2)nc(-n2ccnc2C)c1[N+](=O)[O-]` [u, 2-(4-benzylpiperazin-1-yl)-4-(2-methylimidazol-1-yl)-6-methyl-5-nitropyrimidine], the IC50 was 100 nM.

System: not given
Experiment: not given
Conditions: not given

First: Cc1nc(NC2CCc3c(F)cc(F)cc32)nc(-n2ccnc2)c1[N+](=O)[O-] (centres unmarked) [2-(4,6-difluoro-1-indanamino)-4-(imidazol-1-yl)-6-methyl-5-nitropyrimidine]
Second: Cc1nc(NC2CCc3c(F)cc(F)cc32)nc(-n2ccnc2C)c1[N+](=O)[O-] (centres unmarked) [2-(4,6-difluoro-1-indanamino)-4-(2-methylimidazol-1-yl)-6-methyl-5-nitropyrimidine]
The melting point of the first is higher: 175 to 176 °C for the first, 164 to 165 °C for the second.

First: Cc1nc(NC2Cc3ccccc3C2)nc(-n2ccnc2)c1[N+](=O)[O-] [2-(2-indanamino)-4-imidazol-1-yl-6-methyl-5-nitropyriridine]
Second: Cc1nc(NC2Cc3ccccc3C2)nc(-n2ccnc2C)c1[N+](=O)[O-] [2-(2-indanamino)-4-(2-methylimidazol-1-yl)-6-methyl-5-nitropyrimidine]
The melting point of the first is lower: 177 to 178 °C for the first, 203 to 204 °C for the second.

First: Cc1nc(NC2Cc3ccccc3C2)nc(-n2ccnc2C)c1[N+](=O)[O-].Cl
Second: CCc1nccn1-c1nc(NC2CCc3c(F)cc(F)cc32)nc(C)c1[N+](=O)[O-] (centres unmarked) [2-(4,6-difluoro-1-indanamino)-4-(2-ethylimidazol-1-yl)-6-methyl-5-nitropyrimidine]
The melting point of the first is higher: 184 to 185 °C for the first, 88 to 89 °C for the second.

`CC[C@H]1CCCC[C@H]1Nc1nc(C)c([N+](=O)[O-])c(-n2ccnc2)n1` (relative stereo) showed a melting point of 123 to 124 °C.
